Experimental data as given in patent US9283213B2, “Dihydropyridin-2(1H)-one compounds as S-nitrosoglutathione reductase inhibitors and neurokinin-3 receptor antagonists” (N30 Pharmaceuticals, Inc., priority 2010, dated 2016).

Experiments:
human NK3 receptor [1] = molecular target: T1, human NK3 receptor (Homo sapiens, UniProt P29371); assay: Human NK3 receptor binding assay determined by IC50; conditions: 0.4 nM [3H]SR142801; CHO cell membranes
T1 construct: expressed in transfected cells; host or cells: CHO cells
T1 sequence (P29371 1-465): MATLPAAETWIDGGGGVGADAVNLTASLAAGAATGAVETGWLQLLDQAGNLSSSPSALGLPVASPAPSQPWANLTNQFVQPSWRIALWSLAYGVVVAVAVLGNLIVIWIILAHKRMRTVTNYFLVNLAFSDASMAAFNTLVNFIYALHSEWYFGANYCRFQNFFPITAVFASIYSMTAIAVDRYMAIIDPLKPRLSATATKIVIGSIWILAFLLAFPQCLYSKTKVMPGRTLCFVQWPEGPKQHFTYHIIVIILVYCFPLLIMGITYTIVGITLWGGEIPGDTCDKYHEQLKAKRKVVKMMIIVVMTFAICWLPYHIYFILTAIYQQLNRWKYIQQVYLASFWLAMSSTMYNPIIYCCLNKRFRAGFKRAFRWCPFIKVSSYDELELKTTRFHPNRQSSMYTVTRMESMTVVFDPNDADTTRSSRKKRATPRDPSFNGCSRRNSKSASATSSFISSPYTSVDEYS
Protocol: Evaluation of the affinity of compounds for the human NK3 receptor from transfected CHO cells was performed using an antagonist radioligand binding assay. The antagonist activity of a representative subset of test compounds was evaluated over a range of concentrations, and the results were expressed as IC50 values.
Receptor binding assays were performed using crude membranes prepared from CHO cells expressing human NK3 receptor. Osanetant (SR142801), a non-peptide NK3 antagonist, was used as a ligand, and SB222200 was used as a positive control reference compound. […] The filters were rinsed several times with ice-cold 50 mM Tris/HCl using a 96-sample cell harvester (Unifilter, Packard), dried, and counted for radioactivity in a scintillation counter (Topcount, Packard) using a scintillation cocktail (Microscint 0, Packard). […] Nonspecific binding was determined in the presence of 10 μM SB222200. […] The IC50 values (concentration causing a half-maximal inhibition of control specific binding) and Hill coefficients (nH) were determined by non-linear regression analysis of the competition curves generated with mean replicate values using Hill equation curve fitting (Y=D+[(A−D)/(1+(C/C50)^nH)], where Y=specific binding, D=minimum specific binding, A=maximum specific binding, C=compound concentration, C50=IC50, and nH=slope factor). […]

GSNOR = molecular target: T2, GSNOR (Homo sapiens, UniProt P11766); assay: GSNOR assay (inhibition of GSNOR activity in vitro); format: biochemical; conditions: 0.240 mM GSNO, 0.300 mM NADH, pH 7.4, 25° C.; read-out: GSNOR inhibitor IC50
T2 construct: made in house; host or cells: E. coli
Protocol: Various compounds were tested in vitro for their ability to inhibit GSNOR activity.
Pre-cultures were grown from stabs of a GSNOR glycerol stock in 2XYT media containing 100 ug/ml ampicillin after an overnight incubation at 37° C. Cells were then added to fresh 2XYT (4 L) containing ampicillin and grown to an OD (A600) of 0.6-0.9 at 37° C. before induction. GSNOR expression was induced with 0.1% arabinose in an overnight incubation at 20° C.
E. coli cell paste was lysed by nitrogen cavitation and the clarified lysate purified by Ni affinity chromatography on an AKTA FPLC (Amersham Pharmacia). The column was eluted in 20 mM Tris pH 8.0/250 mM NaCl with a 0-500 mM imidazole gradient. […] GSNOR was recovered in the flowthrough fraction and for crystallography is further purified by Q-Sepharose and Heparin flowthrough chromatography in 20 mM Tris pH 8.0, 1 mM DTT, 10 uM ZnSO4.
GSNO and Enzyme/NADH Solutions are made up fresh each day. The Solutions are filtered and allowed to warm to room temperature. GSNO Solution: 100 mM NaPO4 (pH 7.4), 0.480 mM GSNO. 396 μL of GSNO Solution is added to a cuvette followed by 8 μL of test compound in DMSO (or DMSO only for full reaction control) and mixed with the pipette tip. Compounds to be tested are made up at a stock concentration of 10 mM in 100% DMSO. 2 fold serial dilutions are done in 100% DMSO. 8 μL of each dilution are added to an assay so that the final concentration of DMSO in the assay is 1%. The concentrations of compounds tested range from 100 to 0.003 μM. Enzyme/NADH Solution: 100 mM NaPO4 (pH 7.4), 0.600 mM NADH, 1.0 μg/mL GSNO Reductase. 396 μL of the Enzyme/NADH Solution is added to the cuvette to start the reaction. The cuvette is placed in the Cary 3E UV/Visible Spectrophotometer and the change in 340 nm absorbance/min at 25° C. is recorded for 3 minutes. The assays are done in triplicate for each compound concentration. IC50's for each compound are calculated using the standard curve analysis in the Enzyme Kinetics Module of SigmaPlot.
Final assay conditions: 100 mM NaPO4, pH 7.4, 0.240 mM GSNO, 0.300 mM NADH, 0.5 μg/mL GSNO Reductase and 1% DMSO. Final volume: 800 μL/cuvette.

human NK3 receptor [2] = molecular target: T1, human NK3 receptor; assay: Human NK3 receptor binding assay at 10 μM; conditions: 10 μM test compound; 0.4 nM [3H]SR142801; CHO cell membranes; read-out: percent inhibition at 10 μM, human NK3 receptor binding
Protocol: Evaluation of the affinity of test compounds for the human neurokinin NK3 receptor from transfected CHO cells was performed using an antagonist radioligand binding assay. Antagonist activity was evaluated at a concentration of 10 μM for a representative subset of test compounds, and the results were expressed as the percent inhibition at that concentration.
Receptor binding assays were performed using crude membranes prepared from CHO cells expressing human NK3 receptor. Osanetant (SR142801), a non-peptide NK3 antagonist, was used as a ligand, and SB222200 was used as a positive control reference compound. The assay was performed with cell membrane homogenates (24 μg protein) incubated for 120 min at 22° C. with 0.4 nM [^3H]SR142801 in the absence or presence of the test compound in a buffer containing 20 mM Hepes/NaOH (pH 7.4), 120 mM NaCl, 1 mM MnCl2, 0.01% bacitracin, 0.002% aprotinin and 0.1% BSA. Following incubation, the samples were filtered rapidly under vacuum through glass fiber filters (GF/B, Packard) that had been presoaked with 0.3% PEI. The filters were rinsed several times with ice-cold 50 mM Tris/HCl using a 96-sample cell harvester (Unifilter, Packard), dried, and counted for radioactivity in a scintillation counter (Topcount, Packard) using a scintillation cocktail (Microscint 0, Packard). Each test compound was evaluated at a single concentration of 10 μM. The standard reference compound, SB222200, was tested in each experiment. Nonspecific binding was determined in the presence of 10 μM SB222200. The specific ligand binding to the receptor is defined as the difference between the total binding and the nonspecific binding. The results are expressed as a percent of control specific binding ((measured specific binding/control specific binding)×100) obtained in the presence of the test compounds.

human NK3 receptor [3] = molecular target: T1, human NK3 receptor; assay: Human NK3 receptor binding assay at 1 uM; conditions: 1 μM test compound; 0.4 nM [3H]SR142801; CHO cell membranes; read-out: percent inhibition at 1 μM, human NK3 receptor binding
Protocol: Evaluation of the affinity of compounds for the human NK3 receptor from transfected CHO cells was performed using an antagonist radioligand binding assay. Antagonist activity was evaluated at a concentration of 1 μM for a representative subset of test compounds, and the results were expressed as the percent inhibition at that concentration.
Receptor binding assays were performed using crude membranes prepared from CHO cells expressing human NK3 receptor. Osanetant (SR142801), a non-peptide NK3 antagonist, was used as a ligand, and SB222200 was used as a positive control reference compound. […] The filters were rinsed several times with ice-cold 50 mM Tris/HCl using a 96-sample cell harvester (Unifilter, Packard), dried, and counted for radioactivity in a scintillation counter (Topcount, Packard) using a scintillation cocktail (Microscint 0, Packard). Each test compound was evaluated at a single concentration of 1 μM. […] Nonspecific binding was determined in the presence of 10 μM SB222200. […] The results are expressed as a percent of control specific binding ((measured specific binding/control specific binding)×100) obtained in the presence of the test compounds.

T2 sequence (P11766 whole entry): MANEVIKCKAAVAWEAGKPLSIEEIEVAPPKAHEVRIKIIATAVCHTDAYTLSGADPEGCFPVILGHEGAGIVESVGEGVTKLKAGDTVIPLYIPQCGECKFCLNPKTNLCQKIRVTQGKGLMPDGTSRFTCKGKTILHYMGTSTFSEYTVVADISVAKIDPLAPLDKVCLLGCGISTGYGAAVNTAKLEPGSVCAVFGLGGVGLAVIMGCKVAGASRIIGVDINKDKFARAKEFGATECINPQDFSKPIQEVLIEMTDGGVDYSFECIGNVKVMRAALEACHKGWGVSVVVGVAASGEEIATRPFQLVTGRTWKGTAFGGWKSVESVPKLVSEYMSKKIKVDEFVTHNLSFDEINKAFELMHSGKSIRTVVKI

| Structure (SMILES) | IC50 (human NK3 receptor [1]) | IC50 (GSNOR) | inhibition at 10 µM (human NK3 receptor [2]) | inhibition at 1 µM (human NK3 receptor [3]) |
| --- | --- | --- | --- | --- |
| CCOc1cc(C2CC(=O)NC(c3ccccc3)=C2c2ccccc2)cc([N+](=O)[O-])c1O (stereo not shown) [Example 1, 4-(3-ethoxy-4-hydroxy-5-nitrophenyl)-5,6-diphenyl-3,4-dihydropyridin-2(1H)-one] | ~1100 nM | < 100 nM | > 50% |  |
| CCOc1cc(C2CC(=O)NC(c3cccnc3)=C2c2ccsc2)cc([N+](=O)[O-])c1O (stereo not shown) [Example 2, 4-(3-ethoxy-4-hydroxy-5-nitrophenyl)-6-(pyridin-3-yl)-5-(thiophen-3-yl)-3,4-dihydropyridin-2(1H)-one] |  | < 100 nM | > 50% |  |
| CCOc1cc(C2CC(=O)NC(c3cnn(C)c3)=C2c2ccsc2)cc([N+](=O)[O-])c1O (stereo not shown) [Example 4, 4-(3-ethoxy-4-hydroxy-5-nitrophenyl)-6-(1-methyl-1H-pyrazol-4-yl)-5-(thiophen-3-yl)-3,4-dihydropyridin-2(1H)-one] |  | < 100 nM | > 50% |  |
| O=C1CC(c2ccc(C(=O)O)c(O)c2)C(c2ccsc2)=C(c2ccccc2)N1 (stereo not shown) [Example 7, 2-hydroxy-4-(2-oxo-6-phenyl-5-(thiophen-3-yl)-1,2,3,4-tetrahydropyridin-4-yl)benzoic acid] |  | < 100 nM |  |  |
| Cn1cc(C2=C(c3ccsc3)C(c3ccc(C(=O)O)c(O)c3)CC(=O)N2)cn1 (stereo not shown) [Example 9, 2-hydroxy-4-(6-(1-methyl-1H-pyrazol-4-yl)-2-oxo-5-(thiophen-3-yl)-1,2,3,4-tetrahydropyridin-4-yl)benzoic acid] |  | < 100 nM |  |  |
| O=C1CC(c2cc(OCCO)c(O)c([N+](=O)[O-])c2)C(c2ccccc2)=C(c2ccccc2)N1 (stereo not shown) [Example 14, 4-(4-hydroxy-3-(2-hydroxyethoxy)-5-nitrophenyl)-5,6-diphenyl-3,4-dihydropyridin-2(1H)-one] |  | < 100 nM |  | > 50% |
| CCOc1cc(C2CC(=O)N(C)C(c3ccccc3)=C2c2ccccc2)cc([N+](=O)[O-])c1O (stereo not shown) [Example 16, 4-(3-ethoxy-4-hydroxy-5-nitrophenyl)-1-methyl-5,6-diphenyl-3,4-dihydropyridin-2(1H)-one] |  |  |  | > 50% |
| Cn1cc(C2=C(c3cccs3)C(c3cc(O)c(C(=O)O)c(F)c3)CC(=O)N2)cn1 (stereo not shown) [Example 17, 2-fluoro-6-hydroxy-4-(6-(1-methyl-1H-pyrazol-4-yl)-2-oxo-5-(thiophen-2-yl)-1,2,3,4-tetrahydropyridin-4-yl)benzoic acid] |  | < 100 nM |  |  |
